Results from patent publication US10752647B2, “N-phosphonoxymethyl prodrugs of hydroxyalkyl thiadiazole derivatives” (DAIICHI SANKYO COMPANY, LIMITED, priority 2017, dated 2020).
Converted amounts (≈) assume the structure as drawn. Where two headings read alike, the source gives them in different places.

Experiments:
[1] = Solubility in Japanese Pharmacopeia First Fluid (JP1) and Second Fluid (JP2); assay type: physicochemical; details: thermodynamic from solid, room temperature
Description: Method of Testing Solubility in Water and Neutral Buffer A 10 mmol/L solution of the test compound was prepared in DMSO and dispensed 100 μL of 10 mmol/L DMSO stock solutions into labeled glass tubes in duplicate, one for Japanese Pharmacopeia First Fluid (JP1) and second for Japanese Pharmacopeia Second Fluid (JP2). After evaporation of DMSO from each tube, 500 μL of JP1 and JP2 fluid were added in each tube, respectively. These tubes were sonicated for 1 minute and placed on shaker for 30 minutes with an interval of 30 seconds at every 5 minute. Tubes were placed in dark at room temperature for 1 hour and solution was filtered through membrane filter. The filtrate was diluted 2-fold and 10-fold. The resulting test solutions was analyzed and quantified against the standards using UPLC (standard preparation-10 mmol/L solution in DMSO is serially diluted with 50% aqueous acetonitrile solution to prepare 2 solutions; 100 μmol/L standard solution and 5 μmol/L standard solutions).

[2] = Solubility of parent compounds and prodrugs in phosphate buffer; assay type: physicochemical; details: aqueous buffer, thermodynamic from solid, 25° C., more than 4 weeks, pH 7.0
Description: Parent compounds: About 5 mg of parent compounds (biologically active forms of prodrugs) were added to 950 μL of phosphate buffer, and mixed vigorously for 1 hour at 25° C. Then, these samples were stored at 25° C. for more than 4 weeks and filtered to remove undissolved parent compounds. Next, these solutions were diluted with 50% aqueous acetonitrile solution. The resulting test solutions were assayed by HPLC. Prodrugs: About 30 mg of prodrugs were added to 120 μL of phosphate buffer, and mixed vigorously for 1 hour at 25° C. After shaking, pH of these solutions were adjusted at pH 7.0 by 1 mol/L NaOH solution. Then, the total volume were adjusted to 280 μL with purified water. Next, these solutions were stored at 25° C. for more than 4 weeks and filtered to remove undissolved compounds. These solutions were diluted with 50% aqueous acetonitrile solution. The resulting test solutions were assayed by HPLC.

[3] = system: Clostridium difficile 2009155, a NAP1/027 strain; experiment: Hamster CDI model; assay type: in vivo; details: 0.3 mg/kg/day for 5 days
Description: d) Method for Testing Therapeutic Effect of Compounds in Hamster CDI Model
The in vivo efficacy of Compound No. 1 was evaluated in a hamster CDI model caused by Clostridium difficile 2009155, a NAP1/027 strain. The Syrian hamsters (7-9 weeks old, National Centre for Laboratory Animal Sciences, National Institute Nutrition, Hyderabad, India.) were acclimatized at least 7 days prior the experiment. Hamsters primed with a single subcutaneous injection of clindamycin (30 mg/kg) 1 day prior to infection. Hamsters were infected by oral gavage with 1 mL of spore suspension (2-3×10^5) prepared in PBS. The test compounds were prepared using the 0.25 w/v % Methyl Cellulose Solution for oral administration and 10% HP ß-CD for SC administration and treatment was started 6 h post infection at an interval of 24 h for 5 days. Hamsters were administered a dose of 0.03-0.3 mg/kg/day for 5 days. The death and survival time of the hamsters treated with test compound administered group and non-treated group (vehicle-control) were recorded once daily for 35 days and were compared. A change in the survival time was used as an index of therapeutic effect.

[4] = pH 1.2, simulated gastric fluid, Japanese Pharmacopeia First Fluid (JP1), read-out: Solubility JP1
[5] = pH 6.8, aqueous buffer, Japanese Pharmacopeia Second Fluid (JP2), read-out: Solubility JP2
[6] = prodrug, phosphate buffer adjusted with NaOH
[7] = parent compound, phosphate buffer

| Compound | solubility at 30 min [1, 4] | solubility at 30 min [1, 5] | solubility [2, 6] | also measured |
| --- | --- | --- | --- | --- |
| CCc1c(Cl)nc(C(=O)N[C@@H]2CCN(c3nnc([C@](C)(O)CO)s3)C[C@@H]2OC)n1COP(=O)(O)O [Compound No. 3, (4-Chloro-2-{[(3S,4R)-1-{5-[(2R)-1,2-dihydroxypropan-2-yl]-1,3,4-thiadiazol-2-yl}-3-methoxypiperidin-4-yl]carbamoyl}-5-ethyl-1H-imidazol-1-yl)methyl dihydrogen phosphate] | > 1350 µg/mL | > 1320 µg/mL | 107 mg/mL |  |
| CCc1nc(C(=O)N[C@@H]2CCN(c3nnc(C(C)(C)O)s3)C[C@@H]2OC)n(COP(=O)(O)O)c1Cl [Compound No. 2, [5-Chloro-4-ethyl-2-({(3S,4R)-1-[5-(2-hydroxypropan-2-yl)-1,3,4-thiadiazol-2-yl]-3-methoxypiperidin-4-yl}carbamoyl)-1H-imidazol-1-yl]methyl dihydrogen phosphate] | > 1120 µg/mL | > 1100 µg/mL |  | Survival on day 35 [3]: 100% |
| CCc1[nH]c(C(=O)N[C@@H]2CCN(c3nnc([C@](C)(O)CO)s3)C[C@@H]2OC)nc1Cl [Compound A, 4-chloro-N-[(3S,4R)-1-{5-[(2R)-1,2-dihydroxypropan-2-yl]-1,3,4-thiadiazol-2-yl}-3-methoxypiperidin-4-yl]-5-ethyl-1H-imidazole-2-carboxamide] |  |  |  | solubility [2, 7]: 0.775 mg/mL (≈ 1740 µM) |
| CCc1[nH]c(C(=O)N[C@@H]2CCN(c3nnc([C@@H](O)CO)s3)C[C@@H]2OC)nc1Cl [Compound B, 4-chloro-N-[(3S,4R)-1-{5-[(1S)-1,2-dihydroxyethyl]-1,3,4-thiadiazol-2-yl}-3-methoxypiperidin-4-yl]-5-ethyl-1H-imidazole-2-carboxamide] |  |  |  | solubility [2, 7]: 0.38 mg/mL (≈ 882 µM) |

The next lines start with results.

| solubility at 30 min [1, 4] | solubility at 30 min [1, 5] | solubility [2, 6] | Compound | also measured |
| --- | --- | --- | --- | --- |
|  |  | 105 mg/mL | CCc1nc(C(=O)N[C@@H]2CCN(c3nnc([C@@H](O)CO)s3)C[C@@H]2OC)n(COP(=O)(O)O)c1Cl [Compound No. 10, (5-Chloro-2-{[(3S,4R)-1-{5-[(1S)-1,2-dihydroxyethyl]-1,3,4-thiadiazol-2-yl}-3-methoxypiperidin-4-yl]carbamoyl}-4-ethyl-1H-imidazol-1-yl)methyl dihydrogen phosphate] |  |
|  |  | 107 mg/mL | CCc1c(Cl)nc(C(=O)N[C@@H]2CCN(c3nnc([C@H](O)CO)s3)C[C@@H]2OC)n1COP(=O)(O)O [Compound No. 7, (4-Chloro-2-{[(3S,4R)-1-{5-[(1R)-1,2-dihydroxyethyl]-1,3,4-thiadiazol-2-yl}-3-methoxypiperidin-4-yl]carbamoyl}-5-ethyl-1H-imidazol-1-yl)methyl dihydrogen phosphate] |  |
|  |  | 101 mg/mL | CCc1c(Cl)nc(C(=O)N[C@@H]2CCN(c3nnc([C@H](C)O)s3)C[C@@H]2OC)n1COP(=O)(O)O [Compound No. 5, (4-Chloro-5-ethyl-2-{[(3S,4R)-1-{5-[(1S)-1-hydroxyethyl]-1,3,4-thiadiazol-2-yl}-3-methoxypiperidin-4-yl]carbamoyl}-1H-imidazol-1-yl)methyl dihydrogen phosphate] |  |
| > 1280 µg/mL | > 1510 µg/mL | 102 mg/mL | CCc1nc(C(=O)N[C@@H]2CCN(c3nnc([C@](C)(O)CO)s3)C[C@@H]2OC)n(COP(=O)(O)O)c1Cl [Compound No. 4, (5-Chloro-2-{[(3S,4R)-1-{5-[(2R)-1,2-dihydroxypropan-2-yl]-1,3,4-thiadiazol-2-yl}-3-methoxypiperidin-4-yl]carbamoyl}-4-ethyl-1H-imidazol-1-yl)methyl dihydrogen phosphate] |  |
|  |  | 104 mg/mL | CCc1nc(C(=O)N[C@@H]2CCN(c3nnc([C@H](C)O)s3)C[C@@H]2OC)n(COP(=O)(O)O)c1Cl [Compound No. 6, (5-Chloro-4-ethyl-2-{[(3S,4R)-1-{5-[(1S)-1-hydroxyethyl]-1,3,4-thiadiazol-2-yl}-3-methoxypiperidin-4-yl]carbamoyl}-1H-imidazol-1-yl)methyl dihydrogen phosphate] |  |
|  |  | 102 mg/mL | CCc1nc(C(=O)N[C@@H]2CCN(c3nnc([C@H](O)CO)s3)C[C@@H]2OC)n(COP(=O)(O)O)c1Cl [Compound No. 8, (5-Chloro-2-{[(3S,4R)-1-{5-[(1R)-1,2-dihydroxyethyl]-1,3,4-thiadiazol-2-yl}-3-methoxypiperidin-4-yl]carbamoyl}-4-ethyl-1H-imidazol-1-yl)methyl dihydrogen phosphate] |  |
